From article PMC12363935, “Unc-51 Like Kinase 3 (ULK3) is essential for autophagy and cell survival in multiple myeloma” (Research Square, 2025)

Key:
BRD4-1 = target: T1, BRD4-1 (Homo sapiens, UniProt O60885); assay: Bromodomain profiling assay, AlphaScreen binding, H4/4Ac ligand; settings: NA = no activity
T1 construct: evaluated against Bromodomain 1 by Reaction Biology Corporation; purchased Reaction Biology Corporation
Method: 331 Bromodomain profiling assay
333 evaluated against Bromodomain 1 by Reaction Biology Corporation.
334 The compounds were subjected to testing using a 10-dose IC50 singlet approach, involving a 3-
335 fold serial dilution starting at 10 μM, specifically against BRD4-1. Additionally, as a benchmark,
340 Detection was carried out through the AlphaScreen Binding assay with excitation/emission
341 wavelengths set at 680/520-620 nm, respectively, using the Enspire platform.
342 The data acquisition included raw data, represented as signal-background*, % Binding (relative to
343 DMSO controls), and curve fits.

NTC CTRL U266 MM cells = assay: NTC CTRL U266 in vivo model; settings: 10 mg/kg/day subcutaneously
Text: (§1) Supplementary Figure 7. ULK3 ablation suppresses MM cell growth. A. Immunoblotting for ULK3 expression in parental, NTC CTRL and ULK3 KO U266 cells. Of note, NTC CTRL and ULK3 KO were used for the in vivo ULK3 KO model. Densitometric quantification values are annotated on the blot. B. Mice (n = 20/group) were tail vein injected […]
(§2) with 1 x106 NTC CTRL and ULK3 KO U266 MM cells. […]
(§3) onset of the disease compared to NTC CTRL . (C) Representative confocal microscopy images of formalin fixed, paraffin embedded tumors (5-micron sections), stained for human mitochondria (hMITO) as a readout of MM cells colocalization. Alexa Fluor Plus 488 goat anti-mouse were used as secondary antibody. (D) MTS showing the inhibitory profile of MA9060 on NTC CTRL and ULK3 KO for U266 cell line. Treatment with MA9060 (0-100 uM) for 48h show reduced activity of MA9060 in ULK3 KO cell lines. E. Mice were divided respectively in two groups, vehicle control (n = 10, β-HCD Captisol) or MA9-060 (n = 10). Treatment started at day 20 (M-F, 10 mg/kg/day subcutaneously). MA9-060 treatment improves overall survival in the NTC CTRL arm (median 41 days post-tumor […]
(§4) 38 For MA9 therapy efficacy, mice were treated with vehicle (n=10) or MA9 (10 mg/kg/day, 39 subcutaneously, M-F from day 20; n=10) (Supplementary Fig. 7E, F). Survival and toxicity 40 (weight, clinical signs) was monitored. […]

ULK3 KO U266 MM cells = assay: ULK3 KO U266 in vivo model; design: species or system mice; settings: ULK3 KO U266, 10 mg/kg/day subcutaneously, M-F from day 20
Text: as §1, §2, §3, §4

[1] = tested on: CD138+ cells isolated from RRMM patient Pt1050; assay: Immunoblot densitometry, patient cells; assay type: cell-based, human; settings: Pt1050, 1μM; for ULK3 densitometry: CTRL 0.03; for ULK1 densitometry: CTRL 0.28
Method: Figure 7. MA9–060 treatment compromises the survival of patient NDMM and RRMM cells ex vivo. A. Representative viability (live cell imaging) response of CD138^+ cells from NDMM patient (Pt620) cultured and tested in autologous stromal microenvironment in EMMA’s ex vivo platform, exposed to three different concentrations of MA9–060 (0.7, 2.2, 6.7 μM). […] (not shown here – 20 μM). B. Ex vivo EMMA platform assay to quantify the chemosensitivity of primary CD138^+ MM cells plated in a collagen matrix with bone marrow stroma and patient plasma. […] C. […] H. Immunoblot showing levels of indicated proteins in CD138^+ cells isolated from RRMM patients (Pt971, Pt1050). Pt1050 CD138^+ cells were assessed for ULK3-mediated autophagy related proteins (ATGs), following treatment with MA9–060 (1μM at 2 and 6 hours).
157 5872S). Protein concentration was quantified by Thermo Scientific™ Pierce™ BCA™ Protein
30 μg protein was loaded to 10%-15% gel and ran at
159 100V for 2 hours. Later protein was transferred to PVDF membrane and blocked with 5% skimmed
160 milk in TBST (10 mM Tris/HCl pH8.0, 0.12M NaCl, 0.1% Tween 20) containing 5% BSA [8] for
163 at 4°C overnight. Membranes were washed 3 times,10 minutes with TBS. Then incubated with
164 appropriate secondary antibodies at 1:1000 ratio in skimmed milk or 2% BSA. The membranes
165 were washed again 3 times for 10 minutes with TBST. ECL reagents were added to the membrane
166 and blot was developed by LICOR Imaging Studio.
167 All immunoblotting assays were performed at least in three replicates and representative
168 images are shown. Commercially available antibodies and their dilutions are listed in
169 Supplementary Table 5. Immunoblotting images were acquired and quantified using LICOR
170 Image Studio Quant software. […]

SMILES: Cc1cnc(Nc2ccc(C3CCN(C)CC3)c(F)c2)nc1Nc1ccc(Cl)c(NS(=O)(=O)C(C)(C)C)c1 [MA9060]
- IC50 (BRD4-1): 3.8 nM
- toxicity (weight loss <20%, ruffled hair) (NTC CTRL U266 MM cells): did not show any signs of toxicity
- median overall survival (NTC CTRL U266 MM cells; NTC CTRL arm, M-F from day 20): 41 days
- median overall survival (ULK3 KO U266 MM cells): 87 days
- ULK3 densitometry ([1]; 2h): 0.03
- ULK1 densitometry ([1]; 2h): 0.67
- ULK3 densitometry ([1]; 6h): 0.03
- ULK1 densitometry ([1]; 6h): 0.35
